Measurements reported in patent publication US20050101678A1, “Antibacterial composition” (priority 2000, published 2005).

Columns and labels:
Type in all cases: cell-based
[1] = test system: Ax 20 Corynebacterium striatum/amycolatum; test: MIC microtiter plate test, axilla strain Ax 20; settings: Table 1; growth inhibited by at least 80%, 24 h at 36° C.
Source text: (§1) The different bacterial strains had been isolated from the human axilla by current microbiological practice. They were taxonomically identified by cell morphology, gram-reaction, and biochemical tests included in the Api coryne test kit (BioMerieux, France). Strain Staphylococcus epidermidis Ax25 was identified by fatty acid methyl ester analysis (FAME; German type strain collection DSMZ, Germany). The strains were maintained on Tryptic soy […] plates, this standard medium being amended with 5 g per Liter of Tween 80 and 1 g of Soybean lecithin. Plates were incubated at 36° C. for a period 48 hours. The bacteria were then swabbed from the plates and suspended in 4 ml of Müller-Hinton broth amended with 100 mg of Tween 80 per Liter (MH-Tween) and incubated again at 36° C. for 16 hours. Following incubation the bacterial suspensions were diluted in MH-Tween to obtain a final cell density of 10^6 colony forming units per ml. For each fragrance material four microtiter plates were used in the example, each microtiter plate having 8 rows, A-H, and 12 columns, 1-12.
(§2) To each column a diluted suspension of a different test organism was distributed, 100 μl per well. 1% stock solutions of the fragrance materials were then prepared in MH-Tween broth. The fragrance material was dispersed by ultrasonication into the aqueous medium to obtain a homogenous emulsion. 100 μl per well of this emulsion was then added to the first row of the microtiter plates already containing the target organisms. Serial dilution series were then prepared starting at row A and continuing until row G, each time removing 100 μl from a well and transferring it to the next well. In this way fragrance concentrations of 0.5%, 0.25%, 0.125%, 0.0625%, 0.03125%, 0.0156%, and 0.0078% were tested for their antibacterial efficacy. The reference compound Triclosan was tested at 16-fold lower concentrations. The plates were covered with plastic films and incubated for 24 h at 36° C. with shaking at 250 rpm. The turbidity developing in the microtiter plates was then examined after 24 h to determine microbial growth. […]

[2] = test system: Staphylococcus epidermidis Ax25; test: MIC microtiter plate test, axilla strain Ax 25; settings: for Minimal inhibitory concentration (MIC) Ax 25: Table 1, growth inhibited by at least 80%, 24 h at 36° C.
Source text: as §1
(§3) To each column a diluted suspension of a different test organism was distributed, 100 μl per well. 1% stock solutions of the fragrance materials were then prepared in MH-Tween broth. The fragrance material was dispersed by ultrasonication into the aqueous medium to obtain a homogenous emulsion. 100 μl per well of this emulsion was then added to the first row of the microtiter plates already containing the target organisms. Serial dilution series were then prepared starting at row A and continuing until row G, each time removing 100 μl from a well and transferring it to the next well. In this way fragrance concentrations of 0.5%, 0.25%, 0.125%, 0.0625%, 0.03125%, 0.0156%, and 0.0078% were tested for their antibacterial efficacy. The reference compound Triclosan was tested at 16-fold lower concentrations. The plates were covered with plastic films and incubated for 24 h at 36° C. with shaking at 250 rpm. The turbidity developing in the microtiter plates was then examined after 24 h to determine microbial growth. The minimal concentration of fragrance inhibiting the growth of an organism by at least 80% was determined as the minimal inhibitory concentration (MIC).
(§4) Ax 25 was identified as Staphylococcus. epidermidis by FAME analysis. Identification with the Api Coryne test kit yielded the following species assignments for the remainder of the strains: Ax 26 Corynebacterium sp.; Ax 3 Corynebacterium bovis; Ax 7 Corynebacterium group G; Ax 10 Corynebacterium jeikeium; Ax 11 Corynebacterium jeikeium; Ax 12 Corynebacterium jeikeium; Ax 15 Corynebacterium jeikeium; Ax 20 Corynebacterium striatum/amycolatum; and Ax 19 Corynebacterium jeikeium. The strains were isolated from the axilla of 8 human volunteers. Based on biochemical tests and colony morphology all strains were distinct from each other, even the several strains all belonging to Corynebacterium jeikeium.

[3] = test system: Ax 10 Corynebacterium jeikeium; test: MIC microtiter plate test, axilla strain Ax 10; settings: Table 1; growth inhibited by at least 80%, 24 h at 36° C.
Source text: as §1, §2

[4] = test system: Ax 11 Corynebacterium jeikeium; test: MIC microtiter plate test, axilla strain Ax 11; settings: Table 1; growth inhibited by at least 80%, 24 h at 36° C.
Source text: as §1, §2

[5] = test system: Ax 26 Corynebacterium sp.; test: MIC microtiter plate test, axilla strain Ax 26; settings: for Minimal inhibitory concentration (MIC) Ax 26: Table 1, growth inhibited by at least 80%, 24 h at 36° C.; for Bacteriostatic activity Corynebact. Ax 26: Table 7, concentration for at least 80% reduction in growth during 24 hours
Source text: as §1, §3, §4

[6] = test system: Ax 3 Corynebacterium bovis; test: MIC microtiter plate test, axilla strain Ax 3; settings: Table 1; growth inhibited by at least 80%, 24 h at 36° C.
Source text: as §1, §2

[7] = test system: Ax 15 Corynebacterium jeikeium; test: MIC microtiter plate test, axilla strain Ax 15; settings: for Minimal inhibitory concentration (MIC) Ax 15: Table 1, growth inhibited by at least 80%, 24 h at 36° C.
Source text: as §1, §3, §4

[8] = test system: Ax 7 Corynebacterium group G; test: MIC microtiter plate test, axilla strain Ax 7; settings: for Minimal inhibitory concentration (MIC) Ax 7: Table 1, growth inhibited by at least 80%, 24 h at 36° C.
Source text: as §1, §3, §4

[9] = test system: Ax 12 Corynebacterium jeikeium; test: MIC microtiter plate test, axilla strain Ax 12; settings: Table 1; growth inhibited by at least 80%, 24 h at 36° C.
Source text: as §1, §2

Corynebacteria = test: Activity against Corynebacteria; settings: statement in words
Source text: With 2-methoxy-4-(5,5,6-trimethylbicyclo[2.2.1]hept-2-yl)cyclohexan-1-ol an outstanding activity is achieved.
as §1
To each column a diluted suspension of a different test organism was distributed, 100 μl per well. 1% stock solutions of the fragrance materials were then prepared in MH-Tween broth. […]

[10] = test system: Ax 19 Corynebacterium jeikeium; test: MIC microtiter plate test, axilla strain Ax 19; settings: Table 1; growth inhibited by at least 80%, 24 h at 36° C.
Source text: as §1
To each column a diluted suspension of a different test organism was distributed, 100 μl per well. 1% stock solutions of the fragrance materials were then prepared in MH-Tween broth. The fragrance material was dispersed by ultrasonication into the aqueous medium to obtain a homogenous emulsion. […]

[11] = Table 7, concentration for at least 80% reduction in growth during 24 hours

| Structure (SMILES) | Minimal inhibitory concentration (MIC) Ax 20 [1] | Minimal inhibitory concentration (MIC) Ax 25 [2] | Minimal inhibitory concentration (MIC) Ax 10 [3] | Minimal inhibitory concentration (MIC) Ax 11 [4] | Minimal inhibitory concentration (MIC) Ax 26 [5] | Minimal inhibitory concentration (MIC) Ax 3 [6] | Minimal inhibitory concentration (MIC) Ax 15 [7] | Minimal inhibitory concentration (MIC) Ax 7 [8] | Minimal inhibitory concentration (MIC) Ax 12 [9] | Bacteriostatic activity Corynebact. Ax 26 [5] | further results |
| --- | --- | --- | --- | --- | --- | --- | --- | --- | --- | --- | --- |
| CC1=CCC(CCC(C)C(C)O)C1(C)C (centres unmarked) [Sandalore] | 0.1250 % weight/volume | 0.1250 % weight/volume | 0.1250 % weight/volume | 0.1250 % weight/volume | 0.1250 % weight/volume | 0.1250 % weight/volume | 0.2500 % weight/volume | 0.1250 % weight/volume | 0.1250 % weight/volume |  |  |
| CCC(=CCC1CC=C(C)C1(C)C)CO (centres unmarked) [Radjanol] |  | 0.1250 % weight/volume |  |  | 0.0625 % weight/volume |  | 0.125. % weight/volume | 0.0625 % weight/volume |  |  |  |
| CC(C)=CCCC(C)=CCCC(C)=CCO [Farnesol, 3,7,11-trimethyl-2,6,10-dodecatrien-1-ol] |  |  |  |  | 0.0078 % weight/volume |  |  |  |  | 0.0078 percent (w/v) |  |
| COC1CCC(C2CC3CC2C(C)C3(C)C)CC1O (centres unmarked) [2-methoxy-5-(5,5,6-trimethyl-bicyclo[2.2.1]hept-2-yl)cyclohexan-1-ol] |  |  |  |  |  |  |  |  |  |  | activity against Corynebacteria (Corynebacteria): highest activity |
| Oc1cc(Cl)ccc1Oc1ccc(Cl)cc1Cl [Triclosan, 2,4,4′-trichloro-2′-hydroxy-diphenyl-ether] | 0.0107 % weight/volume | 0.000015 % weight/volume | 0.0020 % weight/volume | 0.0029 % weight/volume | 0.0015 % weight/volume | 0.0029 % weight/volume | 0.0029 % weight/volume | 0.0029 % weight/volume | 0.0017 % weight/volume | 0.0025 percent (w/v) | Bacteriostatic activity S. epidermidis [2, 11]: 0.000015 percent (w/v); Minimal inhibitory concentration (MIC) Ax 19 [10]: 0.0039 % weight/volume; Bacteriostatic activity Corynebact. Ax 15 [7, 11]: 0.0030 percent (w/v); Bacteriostatic activity Corynebact. Ax 7 [8, 11]: 0.0025 percent (w/v) |
| COC1CC(C2CC3CC2C(C)C3(C)C)CCC1O (single isomer, unassigned) [Peak B] |  |  |  |  |  |  |  |  |  | 0.0016 percent (w/v) |  |
| CC1=CCC(/C=C\C(C)C(C)O)C1(C)C (centres unmarked) [Ebanol] | 0.1250 % weight/volume | 0.1250 % weight/volume | 0.2500 % weight/volume | 0.2500 % weight/volume | 0.1250 % weight/volume | 0.1250 % weight/volume | 0.2500 % weight/volume | 0.1250 % weight/volume | 0.2500 % weight/volume |  |  |
| COC1CC(C2CC3CC2C(C)C3(C)C)CCC1O (centres unmarked) [2-methoxy-4-(5,5,6-trimethylbicyclo[2.2.1]hept-2-yl)cyclohexan-1-ol] |  |  |  |  |  |  |  |  |  |  | activity against Corynebacteria (Corynebacteria): highest activity |
